Consider four substances from paper PMC5319746, “Phospholipid binding to the FAK catalytic domain impacts function” (PLoS ONE, 2017).

Like-named read-outs stand apart in the source and are kept apart here.

Experiment [1] has as its target T1, wild type avian FAK catalytic domain (GST fusion protein) (Gallus gallus, UniProt Q00944).
T1 construct: the catalytic domain of FAK was expressed as a GST fusion protein; made in house; host or cells: Escherichia coli BL21 (Codon Plus)
In words: Fluorescence anisotropy binding of BODIPY-labeled C6 phosphoinositides to wild type catalytic domain. Particulars: for Binding to wild type catalytic domain compared with the PI control (ANOVA, Tukey's posttest): anisotropy at 100 and 200 μM protein. The method, then: (§1) For anisotropy experiments purified GST fusion proteins were incubated with BODIPY (dipyrromethene boron difluoride)-labeled phosphoinosotides with C6-acyl chains (Echelon). Increasing concentrations of purified protein were added to 12.5 nM fluorescent phosphoinositide in buffer containing 20 mM HEPES [pH7.5], 150 mM NaCl, and 5 mM β-mercaptoethanol. Anisotropy measurements were taken at 37°C using a Flourlog spectroflourometer equipped with Glan-Thompson polarizers with FluorEssence software (HORIBA Jobin Yvon). Specific binding of the catalytic domain was determined by subtraction of binding of GST alone. Binding curves and dissociation constants were determined using the Prism 5.0 statistical analysis software (GraphPad).
(§2) PI(4,5)P2 binding was further validated using fluorescence anisotropy. GST and the GST catalytic domain of FAK were incubated with BODIPY-TMR labeled short acyl chain (C6) PI or PI(4,5)P2 and anisotropy measured.
To test the specificity of the lipid interaction, the binding of wild type and RK5A GST-fusion proteins to phosphatidylinositol, PI(4)P, PI(4,5)P2, and PI(3,4,5)P3 was analyzed. Purified GST catalytic domain fusion proteins were titrated into a solution of BODIPY-labeled phospholipids with C6-acyl chains, and anisotropy was measured. Phosphatidylinositol with C6-acyl chains and purified GST were used as controls. Differences in anisotropy of each BODIPY-labeled phospholipid at 100 and 200 μM of each protein were compared by ANOVA and a Tukey’s posttest (S1 Table). […] To calculate binding affinities, anisotropy was plotted against protein concentration and binding to GST was subtracted as background binding. […] To determine if the observed interaction with the short acyl chain PI(4,5)P2 required the basic residues implicated in binding to PI(4,5)P2-containing vesicles, the RK5A mutant was analyzed.
A general note: Fluorescence polarisation rises when a labelled molecule tumbles more slowly, as on binding a larger partner.

Experiment [2] has as its target T2, FAK catalytic domain RK5A mutant (GST fusion protein) (Gallus gallus, UniProt Q00944, K515A/K621A/K627A/R508A/R514A).
T2 construct: This GST mutant catalytic domain fusion protein was found in the supernatant; made in house; host or cells: Escherichia coli BL21 (Codon Plus)
In words: Fluorescence anisotropy binding of BODIPY-labeled C6 phosphoinositides to RK5A mutant. On the set-up: species or system avian. The method, then:
as §1, §2
To test the specificity of the lipid interaction, the binding of wild type and RK5A GST-fusion proteins to phosphatidylinositol, PI(4)P, PI(4,5)P2, and PI(3,4,5)P3 was analyzed. Purified GST catalytic domain fusion proteins were titrated into a solution of BODIPY-labeled phospholipids with C6-acyl chains, and anisotropy was measured. Phosphatidylinositol with C6-acyl chains and purified GST were used as controls. […]

The target of experiment [3] is T3, FAK catalytic domain R508A/R514A/K515A mutant (GST fusion protein) (Gallus gallus, UniProt Q00944, K515A/R508A/R514A).
T3 construct: mutations were engineered into the GST-catalytic domain construct; made in house; host or cells: Escherichia coli BL21 (Codon Plus)
Particulars: BODIPY-labeled C6 lipid, Fig 7, read-out: Kd for binding (specific binding, GST subtracted).
Source text: (§3) Short acyl chain (C6) BODIPY labeled PI(4,5)P2, was chosen to assess the ability of these mutants to bind phospholipids using fluorescence anisotropy.

Experiment [4] deals with T4, FAK catalytic domain K621A/K627A mutant (GST fusion protein) (Gallus gallus, UniProt Q00944, K621A/K627A).
T4 construct: mutations were engineered into the GST-catalytic domain construct; made in house; host or cells: Escherichia coli BL21 (Codon Plus)
Particulars: BODIPY-labeled C6 lipid, Fig 7, read-out: Kd for binding (specific binding, GST subtracted).
Source text: as §3

Experiment [5] concerns the target T5, FAK catalytic domain R508A/K621A mutant (GST fusion protein) (Gallus gallus, UniProt Q00944, K621A/R508A).
T5 construct: mutations were engineered into the GST-catalytic domain construct; made in house; host or cells: Escherichia coli BL21 (Codon Plus)
Conditions: BODIPY-labeled C6 lipid, Fig 7, read-out: Kd for binding (specific binding, GST subtracted).
Source text: as §3

The mark [6] stands for this setting: wild type catalytic domain, lipid specificity experiment, Fig 8B, read-out: Kd of the wild type catalytic domain for each phosphatidylinositol phosphate.

T1 sequence (Q00944 422-680 limits assumed): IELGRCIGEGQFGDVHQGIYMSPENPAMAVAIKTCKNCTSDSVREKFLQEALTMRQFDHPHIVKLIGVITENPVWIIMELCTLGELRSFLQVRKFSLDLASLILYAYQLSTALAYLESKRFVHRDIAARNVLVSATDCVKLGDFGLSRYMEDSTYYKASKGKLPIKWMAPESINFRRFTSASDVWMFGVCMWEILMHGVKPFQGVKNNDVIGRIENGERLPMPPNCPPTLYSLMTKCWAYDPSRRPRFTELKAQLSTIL
T2 sequence (Q00944 422-680 R508A/R514A/K515A/K621A/K627A limits assumed): as the sequence (Q00944 422-680 limits assumed) above, with R87A, R93A, K94A, K200A, K206A counted along it
T5 sequence (Q00944 422-680 R508A/K621A limits assumed): as the sequence (Q00944 422-680 limits assumed) above, with R87A, K200A counted along it
T4 sequence (Q00944 422-680 K621A/K627A limits assumed): as the sequence (Q00944 422-680 limits assumed) above, with K200A, K206A counted along it
T3 sequence (Q00944 422-680 R508A/R514A/K515A limits assumed): as the sequence (Q00944 422-680 limits assumed) above, with R87A, R93A, K94A counted along it

For phosphatidylinositol [PI], in experiment [1] (wild type catalytic domain, anisotropy, GST subtracted), the “Specific binding (in words)” value was “did not specifically bind”. In addition, in experiment [1] (setting [6]), the dissociation constant Kd (in general, the constant that tells how readily two partners part at equilibrium) was greater than 200 µM.
Turning to PI(3,4,5)P3, in experiment [1], the “Binding to wild type catalytic domain compared with the PI control (ANOVA, Tukey's posttest)” value is given as “significant”. The Kd in experiment [1] (setting [6]) came out at 16 ± 9.2 µM.
Turning to PI(4)P, in experiment [1], the “Binding to wild type catalytic domain compared with the PI control (ANOVA, Tukey's posttest)” value is reported as “approached, but did not reach significance”. The Kd in experiment [1] (setting [6]) is 11.7 ± 13.7 µM.
“Phosphatidylinositol-4,5-bisphosphate [PI(4,5)P2]”: the “Binding to wild type catalytic domain compared with the PI control (ANOVA, Tukey's posttest)” value in experiment [1] is on record as “significant”. Moreover, the Kd was 15.7 ± 6.5 µM in experiment [1] (wild type catalytic domain, BODIPY-labeled C6 lipid 12.5 nM, 37°C, Fig 7 experiment, read-out: Kd for binding (specific binding, GST subtracted)); 12.9 ± 2.3 µM in experiment [1] (setting [6]); greater than 200 µM in experiment [2] (BODIPY-labeled C6 lipid, Fig 7 experiment, read-out: Kd for binding (specific binding, GST subtracted)); 16.4 ± 3.2 µM in experiment [3]; 20.8 ± 2.7 µM in experiment [4]; greater than 200 µM in experiment [5]. Besides, in experiment [2] (anisotropy, GST subtracted), the “Specific binding (in words)” value is recorded as “no specific binding”.
